Test results reported in patent publication US11459324B2, “O-glycoprotein-2-acetamido-2-deoxy-3-D-glycopyranosidase inhibitors” (BIOGEN MA INC., priority 2018, dated 2022).

Biological target: T1, Recombinant full length human OGA enzyme (Homo sapiens, UniProt O60502)
T1 construct: Recombinant full length human OGA enzyme was purchased from Origene; purchased Origene
T1 sequence (O60502 1-916): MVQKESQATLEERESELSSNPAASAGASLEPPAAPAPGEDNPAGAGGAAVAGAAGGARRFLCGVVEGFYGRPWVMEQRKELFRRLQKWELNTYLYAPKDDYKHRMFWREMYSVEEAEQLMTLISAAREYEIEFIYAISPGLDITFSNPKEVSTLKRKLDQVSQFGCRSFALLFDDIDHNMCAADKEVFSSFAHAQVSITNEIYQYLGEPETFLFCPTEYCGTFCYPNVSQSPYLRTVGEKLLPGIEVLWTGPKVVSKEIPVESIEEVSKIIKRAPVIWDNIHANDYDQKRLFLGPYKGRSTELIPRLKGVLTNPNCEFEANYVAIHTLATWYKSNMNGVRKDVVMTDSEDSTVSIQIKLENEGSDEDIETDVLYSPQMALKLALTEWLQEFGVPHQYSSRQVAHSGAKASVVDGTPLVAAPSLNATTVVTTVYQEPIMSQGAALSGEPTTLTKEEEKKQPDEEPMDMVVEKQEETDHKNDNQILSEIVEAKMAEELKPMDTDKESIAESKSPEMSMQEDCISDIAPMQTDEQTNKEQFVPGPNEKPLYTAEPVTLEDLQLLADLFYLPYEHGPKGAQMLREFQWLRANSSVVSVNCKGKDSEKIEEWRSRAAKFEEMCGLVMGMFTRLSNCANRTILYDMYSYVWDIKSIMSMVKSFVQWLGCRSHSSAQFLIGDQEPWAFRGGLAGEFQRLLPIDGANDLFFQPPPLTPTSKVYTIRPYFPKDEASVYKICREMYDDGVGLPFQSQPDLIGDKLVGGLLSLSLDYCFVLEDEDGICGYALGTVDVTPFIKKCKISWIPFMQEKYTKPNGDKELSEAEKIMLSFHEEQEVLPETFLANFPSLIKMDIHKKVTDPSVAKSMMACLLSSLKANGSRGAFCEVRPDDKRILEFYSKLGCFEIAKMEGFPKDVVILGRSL
Assay: OGA Enzyme Inhibition Biochemical Assay
Conditions: 1 nM OGA, 100 μM 4-MUGlcNAc (Km), pH 6.4, 90 minutes at room temperature, 10-point dose-response from 20 μM
Description: OGA Enzyme Inhibition Biochemical Assay
Recombinant full length human OGA enzyme was purchased from Origene. 4-MUGlCNAc substrate was purchased from Sigma. All other reagents were purchased from Sigma or Fisher. Assay buffer consists of the McIlvaine buffer system, pH 6.4 (0.2M Na2HPO4 mixed with 0.1M citric acid) and 0.01% BSA. Reactions consist of 1 nM OGA, 100 μM 4-MUGlcNAc (Km), and compound in a final volume of 10 μl. Reactions were incubated for 90 minutes at room temperature and quenched with 40 μl of 3M glycine, pH 10 and read on a Perkin Elmer Envision plate reader (Ex: 355 nm/Em: 460 nm). Compounds were tested with a 10-point dose-response starting from 20 μM with a 4-fold dilution. Data was fit using GraphPad Prism using a 4-parameter fit with variable slope.

| IC50 [µM] | SMILES |
| --- | --- |
| < 0.001 | COc1cc(C[C@@H]2C[C@H](C)N(Cc3sc(NC(C)=O)nc3F)C2)ncn1 [Example 3-44, N-(4-fluoro-5-(((2S,4S)-4-((6-methoxypyrimidin-4-yl)methyl)-2-methylpyrrolidin-1-yl)methyl)thiazol-2-yl)acetamide] |
| < 0.001 | CC(=O)Nc1nc(F)c(CN2CCC[C@H](Cc3ncc(F)cn3)C2)s1 [Example 3-48, (R)-N-(4-fluoro-5-((3-((5-fluoropyrimidin-2-yl)methyl)piperidin-1-yl)methyl)thiazol-2-yl)acetamide] |
| 0.68 | CC(=O)Nc1ncc(CN2CCCC(Cn3nc(C)c(C)c3C)C2)s1 (stereo not shown) [Example 4-4, N-(5-((3-((3,4,5-trimethyl-1H-pyrazol-1-yl)methyl)piperidin-1-yl)methyl)thiazol-2-yl)acetamide] |
| 0.54 | CC(=O)Nc1ncc(CN2CCCC(Cn3cc(C4CC4)cn3)C2)s1 (stereo not shown) [Example 4-6, N-(5-((3-((4-cyclopropyl-1H-pyrazol-1-yl)methyl)piperidin-1-yl)methyl)thiazol-2-yl)acetamide] |
| 0.36 | COc1cnn(CC2CCCN(Cc3cnc(NC(C)=O)s3)C2)c1 (stereo not shown) [Example 4-8, N-(5-((3-((4-methoxy-1H-pyrazol-1-yl)methyl)piperidin-1-yl)methyl)thiazol-2-yl)acetamide] |
| 0.058 | CC(=O)Nc1ncc(CN2CCCC(Cn3cnc4ccccc43)C2)s1 (stereo not shown) [Example 4-24, N-(5-((3-((1H-benzo[d]imidazol-1-yl)methyl)piperidin-1-yl)methyl)thiazol-2-yl)acetamide] |
| 0.002 | CC(=O)Nc1ncc(CN2CCC[C@H](Cc3ccc(C(F)F)cn3)C2)s1 [Example 3-5, (R)-N-(5-((3-((5-(difluoromethyl)pyridin-2-yl)methyl)piperidin-1-yl)methyl)thiazol-2-yl)acetamide] |
| 0.019 | CC(=O)N(C)c1ncc(CN2CCC[C@H](Cc3ncc(F)cn3)C2)s1 [Example 3-16, N-[5-[[(3R)-3-[(5-fluoropyrimidin-2-yl)methyl]-1-piperidyl]methyl]thiazol-2-yl]-N-methyl-acetamide] |
| 0.004 | CC(=O)Nc1ncc(CN2CCC[C@H]([C@@H](C)c3ncc(F)cn3)C2)s1 (single isomer, unassigned) [Example 2-31] |
| 0.079 | CC(=O)N(C)c1nc(F)c(CN2CC[C@H](Cc3ncc(F)cn3)C2)s1 [Example 3-37, (R)-N-(4-fluoro-5-((3-((5-fluoropyrimidin-2-yl)methyl)pyrrolidin-1-yl)methyl)thiazol-2-yl)-N-methylacetamide] |
| 0.008 | COc1cc(C[C@@H]2CCN(Cc3sc(NC(C)=O)nc3F)C2)ncn1 [Example 3-34, (S)—N-(4-fluoro-5-((3-((6-methoxypyrimidin-4-yl)methyl)pyrrolidin-1-yl)methyl)thiazol-2-yl)acetamide] |
| 0.002 | CC(=O)Nc1ncc(CN2CCC[C@H](Cc3ncccn3)C2)s1 [Example 3-7, (R)-N-(5-((3-(pyrimidin-2-ylmethyl)piperidin-1-yl)methyl)thiazol-2-yl)acetamide] |
| < 0.001 | CC(=O)Nc1nc(F)c(CN2C[C@@H](Cc3noc(C)n3)CC[C@@H]2C)s1 [Example 4-16, N-(4-fluoro-5-(((2S,5R)-2-methyl-5-((5-methyl-1,2,4-oxadiazol-3-yl)methyl)piperidin-1-yl)methyl)thiazol-2-yl)acetamide] |
| 0.15 | CC(=O)Nc1nc(Cl)c(CN2CC[C@H](Cc3cc(C)nc(C)c3)C2)s1 [Example 3-38, (S)—N-(4-chloro-5-((3-((2,6-dimethylpyridin-4-yl)methyl)pyrrolidin-1-yl)methyl)thiazol-2-yl)acetamide] |
| 0.122 | CC(=O)Nc1ncc(CN2CCC[C@@H](Cc3ncc(F)cn3)C2)s1 [Example 2-33, N-[5-[[(3S)-3-[(5-fluoropyrimidin-2-yl)methyl]-1-piperidyl]methyl]thiazol-2-yl]acetamide] |
| 0.038 | CC(=O)Nc1ncc(CN2CCCC(Cn3cncn3)C2)s1 (stereo not shown) [Example 4-21, N-(5-((3-((1H-1,2,4-triazol-1-yl)methyl)piperidin-1-yl)methyl)thiazol-2-yl)acetamide] |
| 0.33 | CC(=O)Nc1ncc(CN2CCC[C@H]([C@H](C)c3ncc(F)cn3)C2)s1 (single isomer, unassigned) [Example 2-32] |
| 0.99 | CC(=O)Nc1ncc(CN2C[C@@H](Cc3ncc(F)cn3)CC[C@@H]2C)s1 (single isomer, unassigned) [Example 2-26] |
| 0.001 | CC(=O)Nc1ncc(CN2CCC(C(C)c3ncc(F)cn3)C2)s1 (stereo not shown) [Example 2-36, N-(5-((3-(1-(5-fluoropyrimidin-2-yl)ethyl)pyrrolidin-1-yl)methyl)thiazol-2-yl)acetamide] |
| < 0.001 | CC(=O)Nc1nc(F)c(CN2CCC[C@H](Cc3cc(C)nc(C)c3)C2)s1 [Example 3-25, (R)-N-(5-((3-((2,6-dimethylpyridin-4-yl)methyl)piperidin-1-yl)methyl)-4-fluorothiazol-2-yl)acetamide] |
| 0.015 | CC(=O)Nc1ncc(CN2CCCC(Cn3cc(C(C)=O)cn3)C2)s1 (stereo not shown) [Example 4-11, N-(5-((3-((4-acetyl-1H-pyrazol-1-yl)methyl)piperidin-1-yl)methyl)thiazol-2-yl)acetamide] |
| 0.38 | CC(=O)Nc1ncc(CN2CCCC(Cn3cc(C(C)C)cn3)C2)s1 (stereo not shown) [Example 4-7, N-(5-((3-((4-isopropyl-1H-pyrazol-1-yl)methyl)piperidin-1-yl)methyl)thiazol-2-yl)acetamide] |

More lines, now with the values behind:

| SMILES | IC50 [µM] |
| --- | --- |
| CCc1cc2ncnc(CC3CCCN(Cc4cnc(NC(C)=O)s4)C3)c2s1 (stereo not shown) [Example 1-42, N-(5-((3-((6-ethylthieno[3,2-d]pyrimidin-4-yl)methyl)piperidin-1-yl)methyl)thiazol-2-yl)acetamide] | 0.002 |
| COc1ccc(CC2CCN(Cc3cnc(NC(C)=O)s3)C2)cn1 (stereo not shown) [Example 1-23, N-(5-((3-((6-methoxypyridin-3-yl)methyl)pyrrolidin-1-yl)methyl)thiazol-2-yl)acetamide] | 0.017 |
| COc1ccc(CC2CCCN(Cc3cnc(NC(C)=O)s3)C2)cc1 (stereo not shown) [Example 1-4, N-(5-((3-(4-methoxybenzyl)piperidin-1-yl)methyl)thiazol-2-yl)acetamide] | 0.008 |
| CC(=O)Nc1ncc(CN2CCCC(Cc3ccncc3)C2)s1 (stereo not shown) [Example 1-40, N-(5-((3-(pyridin-4-ylmethyl)piperidin-1-yl)methyl)thiazol-2-yl)acetamide] | 0.004 |
| COc1ccc(CC2CCN(Cc3cnc(NC(C)=O)s3)C2)cc1 (stereo not shown) [Example 1-15, N-(5-((3-(4-methoxybenzyl)pyrrolidin-1-yl)methyl)thiazol-2-yl)acetamide] | 0.046 |
| COc1ccc(CC2CCCN(Cc3cnc(NC(C)=O)s3)C2)nc1 (stereo not shown) [Example 1-10, N-(5-((3-((5-methoxypyridin-2-yl)methyl)piperidin-1-yl)methyl)thiazol-2-yl)acetamide] | 0.02 |
| CC(=O)Nc1ncc(CN2CCCC(Cc3cncc(C(F)(F)F)c3)C2)s1 (stereo not shown) [Example 1-30, N-(5-((3-((5-(trifluoromethyl)pyridin-3-yl)methyl)piperidin-1-yl)methyl)thiazol-2-yl)acetamide] | 0.03 |
| COc1ccnc(CC2CCN(Cc3cnc(NC(C)=O)s3)C2)c1 (stereo not shown) [Example 1-21, N-(5-((3-((4-methoxypyridin-2-yl)methyl)pyrrolidin-1-yl)methyl)thiazol-2-yl)acetamide] | 0.013 |
| COc1ccc(CC2CCN(Cc3cnc(NC(C)=O)s3)C2)nc1 (stereo not shown) [Example 1-22, N-(5-((3-((5-methoxypyridin-2-yl)methyl)pyrrolidin-1-yl)methyl)thiazol-2-yl)acetamide] | 0.1 |
| COc1cncc(CC2CCCN(Cc3cnc(NC(C)=O)s3)C2)c1 (stereo not shown) [Example 1-8, N-(5-((3-((5-methoxypyridin-3-yl)methyl)piperidin-1-yl)methyl)thiazol-2-yl)acetamide] | 0.029 |
| COc1cc(CC2CCCN(Cc3cnc(NC(C)=O)s3)C2)ccn1 (stereo not shown) [Example 1-7, N-(5-((3-((2-methoxypyridin-4-yl)methyl)piperidin-1-yl)methyl)thiazol-2-yl)acetamide] | 0.003 |
| CC(=O)Nc1nc(F)c(CN2C[C@@H](Cc3noc(C)n3)C[C@@H]2C)s1 (single isomer, unassigned) [Example 4-12 Peak 1] | < 0.001 |
